According to paper PMC12332266 (Frontiers in Pharmacology, 2025):
Read-outs that look alike come from different tables or passages of the source.

Legend:
[1] = test system: hiPSC-CM (iCell Cardiomyocytes^2); experiment: Intracellular miRNA expression by RT-qPCR in hiPSC-CM pellets after 72-hour treatment; settings: for fold induction at 0.01 µM / fold induction at 0.03 µM / fold induction at 0.1 µM / fold induction at 0.3 µM: Homo sapiens
Description: (§1) Culture media change was performed every 2 days.
Total RNA was extracted from hiPSC-CM using the miRNeasy 96 Kit (Qiagen, Hilden, Germany) following the manufacturer’s recommendations. After the extraction, RNA purity was assessed by NanoDrop™ 8000 Spectrophotometer (Thermo Fisher Scientific Inc.). 5–10 ng/μL of RNA per sample were reverse transcribed and pre-amplified by using the TaqMan™ Advanced miRNA cDNA Synthesis Kit (Thermo Fisher Scientific Inc.). The synthesized cDNA was used for RT-qPCR with selected TaqMan™ assays (Thermo Fischer Scientific Inc.). RT-qPCR was carried out following the Applied Biosciences TaqMan miRNA expression assay protocol on a ViiA7 instrument (Thermo Fisher Scientific, Inc.). […] Therefore, to maximize the number of drugs and concentrations, explored in the same study, we pooled the triplicates for intracellular profiling of miRNAs. Therefore, no statistical analysis was performed on the data of miRNA profiling in the pellets of hiPSC-CM.
Following RTCA CardioECR assessment, hiPSC-CM cell pellets were collected, and total RNA was extracted and purified to investigate miRNAs upregulation by RT-qPCR. […] For the initial assessment of intracellular miRNAs in 12 different treatments, encompassing various drug classes, we used a panel of 17 miRNAs, which we selected from the publicly available data focusing mainly on in vitro models and structural cardiotoxicants (Supplementary Table S2).

[2] = ref extensive literature search, cited from earlier work
[3] = test system: hiPSC-CM (iCell Cardiomyocytes^2); experiment: RTCA CardioECR assessment (impedance and electrophysiology parameters)
Description: as §1
After seeding on fibronectin-coated xCELLigence ePlates (Agilent Technologies, Inc. Santa Clara, CA, USA), iCell^2 CM were monitored continuously through impedance electrodes. The following impedance parameters were measured: Cell Index (CI, measure of cell “health” and monolayer integrity), beating rate (BR) and amplitude (CI Amplitude, magnitude of contraction). Electrophysiology-like parameters (Field Potential Duration (FPD), considered as a surrogate for QT in in vivo studies, and Spike Amplitude (SA), depolarization induced by Na^+ channel opening) were measured starting from day 4–6, following the monolayer formation. […] All RTCA CardioECR data were double normalized (DMSO control and the baseline) with no further statistical group comparison for the normalized parameters. The variability of the data within the treatment groups was assessed by standard deviation.

[4] = 72 h, read-out: hsa-miR-7-5p fold change
[5] = 72 h, read-out: hsa-miR-126-3p fold change
[6] = 72 h, read-out: hsa-miR-146b-5p fold change
[7] = 72 h, read-out: hsa-miR-182-5p fold change
[8] = 72 h, read-out: hsa-miR-185-3p fold change
[9] = 72 h, read-out: hsa-miR-187-3p fold change
[10] = 72 h, read-out: hsa-miR-208b-3p fold change
[11] = 72 h, read-out: hsa-miR-[…] change
[12] = hiPSC-CM, 72-hour treatment, lowest concentration causing at least 20% change from baseline

## CCCCCNC(=N)N/N=C/c1c[nH]c2ccc(OC)cc12 [Tegaserod]
[1]; [4]
  fold induction at 0.01 µM: 0.8
  fold induction at 0.03 µM: 1.4
  fold induction at 0.1 µM: 1.3
  fold induction at 0.3 µM: 2
[1]; [5]
  fold induction at 0.01 µM: 2
  fold induction at 0.03 µM: 4.9
  fold induction at 0.1 µM: 0.9
  fold induction at 0.3 µM: 3.2
[1]; [6]
  fold induction at 0.01 µM: 0.5
  fold induction at 0.03 µM: 0.7
  fold induction at 0.1 µM: 1.2
  fold induction at 0.3 µM: 0.9
[1]; [7]
  fold induction at 0.01 µM: 1.8
  fold induction at 0.03 µM: 3.9
  fold induction at 0.1 µM: 1.9
  fold induction at 0.3 µM: 15.7
[1]; [8]
  fold induction at 0.01 µM: 0.7
  fold induction at 0.03 µM: 1.3
  fold induction at 0.1 µM: 0.9
  fold induction at 0.3 µM: 1
[1]; [9]
  fold induction at 0.01 µM: 2.5
  fold induction at 0.03 µM: 2
  fold induction at 0.1 µM: 2
  fold induction at 0.3 µM: 3.7
[1]; [10]
  fold induction at 0.01 µM: 1.8
  fold induction at 0.03 µM: 1.2
  fold induction at 0.1 µM: 1.7
  fold induction at 0.3 µM: 1.4
[1]; [11]
  fold induction at 0.01 µM: 0.8
  fold induction at 0.03 µM: 0.8
  fold induction at 0.1 µM: 0.9
  fold induction at 0.3 µM: 0.7
[1]; fold change ≥2, 72 h
  miRNAs upregulated at the MEC overall (hiPSC-CM pellet): miR-126-3p, miR-187-3p
[1]; lowest concentration tested which produced miRNA upregulation (fold change ≥2), 72 h
  miRNAs hiPSC-CM pellet, MEC overall: 0.01 µM
[2]; Supplementary Table 1
  Cmax total: 80 nM
[2]; Table 1
  Cmax total: 80 nM
[3]; hiPSC-CM, 72-hour treatment, at least 10% change
  Field Potential Duration MEC: 0.1 µM
[3]; [12]
  Beating rate (BR) MEC: ND (ND – not detected, magnitude of change was lower than 20%)
  Cell index (CI) MEC: ND (ND – not detected, magnitude of change was lower than 20%)
[3]; hiPSC-CM, change ≥20%, Table 2
  RTCA, MEC (BR): ND (ND – not detected, magnitude of change was lower than 20% for CI/BR)
  RTCA, MEC (CI): ND (ND – not detected, magnitude of change was lower than 20% for CI/BR)
[3]; human, 72 h
  Spike Amplitude (SA) MEC: 0.01 µM
